{"source": "patent US12569563B2", "about": "“Selective HDAC6 degraders and methods of use thereof” (DANA-FARBER CANCER INSTITUTE, INC., priority 2019, dated 2026)", "target": "T1, CRBN (Homo sapiens, UniProt Q96SW2)", "T1 construct": "endogenous in cells; host or cells: Flp-In 293 cells stably expressing BRD4BD2-eGFP-P2A-mCherry", "assay": "Cellular CRBN engagement assay (competition with dBET6, BRD4BD2-eGFP reporter)", "type": "cell-based", "conditions": "Flip-In 293 BRD4BD2-eGFP cells, 100 nM dBET6, 5 h", "excerpt": "The cellular CRBN engagement assay measures the cellular binding affinity which is the combination of the compound's cell permeability and their binding affinity to CRBN. This is done by measuring the ability of thalidomide-based degrader molecules to compete with pan-BET bromodomain degrader dBET6 (Nowak et al., Nat. Chem. Biol. 14:706-714 (2018)) for CRBN binding in cells. If no degrader compound is present in the cell, BRD4BRD2-eGFP is degraded by dBET6 via the proteasome system. […]\nCells were seeded at 30-50% confluency in either 24, 48 or 96 well plates (3524, 3548, 3596 respectively, Costar) a day before compound treatment. The inventive compounds were titrated in the presence of 100 nM dBET6 and then were incubated with cells for 5 h following trypsinization and resuspension in DMEM media, transferred into 96-well plates (353910, Falcon®) and analyzed by flow cytometer (Guava® easyCyte™ HT, Millipore®). Signal from at least 3000 events per well was acquired and the eGFP and mCherry florescence monitored. Data was analyzed using FlowJo® (FlowJo®, LCC). Forward and side scatter outliers, frequently associated with cell debris, were removed leaving >90% of total cells, followed by removal of eGFP and mCherry signal outliers, leaving 88-90% of total cells creating the set used for quantification. […]", "data": [{"smiles": "CN(C(=O)CCCCCNc1cccc2c1C(=O)N(C1CCC(=O)NC1=O)C2=O)c1ccc(NC(=O)CCCCCCC(=O)NO)cc1", "note": "(stereo not shown) [Compound 2, N^1-(4-(6-((2-(2,6-dioxopiperidin-3-yl)-1,3-dioxoisoindolin-4-yl)amino)-N-methylhexanamido)phenyl)-N^8-hydroxyoctanediamide]", "values": [{"measurement": "IC50", "result": 5.37, "unit": "µM"}]}]}
